Assay results: patent publication US12077503B2, “Substituted cyclic amides and their use as herbicides” (FMC CORPORATION, priority 2015, dated 2024)
Where two headings read alike, the source gives them in different places.

Columns and labels:
Type in all cases: in vivo
[1] = system: giant foxtail (Setaria faberii); assay: Test A preemergence; settings: Setaria faberi, pre-emergence, 240 h, preemergence, 0 to 100 scale where 0 is no effect and 100 is complete control, read-out: Foxtail, Giant plant response rating; for pest or weed control at 125 g/ha: 125 g ai/ha, approx. 10 d; for pest or weed control at 500 g/ha: 500 g ai/ha
Method in brief: (§1)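 Seeds sprayed preemergence with a directed soil spray, or plants at 2 to 10 cm height and one- to two-leaf stage sprayed postemergence, with test chemicals in a non-phytotoxic solvent mixture containing surfactant, in loam soil–sand blend. Injury rated visually against untreated controls after about 10 d in greenhouse, 0 (no effect) to 100 (complete control).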

[2] = system: ducksalad (Heteranthera limosa); assay: Test B flooded paddy test; settings: Heteranthera limosa, 250 g ai/ha, Flood; 0 to 100 scale where 0 is no effect and 100 is complete control; read-out: Ducksalad plant response rating
Method in brief: (§2)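 Evaluation by eye, against controls, occurred 13–15 d post-treatment in a greenhouse, using a 0 (no effect) to 100 (complete control) scale. Application was into the paddy water, 3 cm deep over the soil, on 2-leaf plants.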

[3] = system: barnyardgrass (Echinochloa crus-galli); assay: Test B flooded paddy test; settings: Echinochloa crus-galli, 250 g ai/ha, Flood; 0 to 100 scale where 0 is no effect and 100 is complete control; read-out: Barnyardgrass plant response rating
Method in brief: as §2

[4] = system: rice (Oryra sativa); assay: Test B flooded paddy test; settings: Oryza sativa, 250 g ai/ha, Flood; 0 to 100 scale where 0 is no effect and 100 is complete control; read-out: Rice plant response rating
Method in brief: as §2

[5] = system: sedge, umbrella (small-flower umbrella sedge, Cyperus difformis); assay: Test B flooded paddy test; settings: Cyperus difformis, 250 g ai/ha, Flood; 0 to 100 scale where 0 is no effect and 100 is complete control; read-out: Sedge, Umbrella plant response rating
Method in brief: as §2

[6] = system: giant foxtail (Setaria faberii); assay: Test A postemergence; settings: Setaria faberi, post-emergence, 240 h, postemergence, read-out: Foxtail, Giant plant response rating; for pest or weed control at 125 g/ha: 125 g ai/ha, visual injury on 0 to 100 scale (0 no effect, 100 complete control), approx. 10 d; for pest or weed control at 500 g/ha: 500 g ai/ha, 0 to 100 scale, 0 is no effect, 100 is complete control
Method in brief: as §1

[7] = system: blackgrass (Alopecurus myosuroides); assay: Test A postemergence; settings: Alopecurus myosuroides, post-emergence, 240 h, postemergence, read-out: Blackgrass plant response rating; for pest or weed control at 125 g/ha: 125 g ai/ha, visual injury on 0 to 100 scale (0 no effect, 100 complete control), approx. 10 d; for pest or weed control at 500 g/ha: 500 g ai/ha, 0 to 100 scale, 0 is no effect, 100 is complete control
Method in brief: as §1

[8] = system: Galium (catchweed bedstraw, Galium aparine); assay: Test A postemergence; settings: Galium, post-emergence, 240 h, postemergence, read-out: Galium plant response rating; for pest or weed control at 125 g/ha: 125 g ai/ha, visual injury on 0 to 100 scale (0 no effect, 100 complete control), approx. 10 d; for pest or weed control at 500 g/ha: 500 g ai/ha, 0 to 100 scale, 0 is no effect, 100 is complete control
Method in brief: as §1

[9] = system: corn (Zea mays); assay: Test A postemergence; settings: Zea mays, post-emergence, 240 h, postemergence, read-out: Corn plant response rating; for plant injury at 125 g/ha: 125 g ai/ha, visual injury on 0 to 100 scale (0 no effect, 100 complete control), approx. 10 d; for plant injury at 500 g/ha: 500 g ai/ha, 0 to 100 scale, 0 is no effect, 100 is complete control
Method in brief: as §1

[10] = system: Kochia (Kochia scoparia); assay: Test A postemergence; settings: Bassia scoparia, post-emergence, 240 h, postemergence, read-out: Kochia plant response rating; for pest or weed control at 125 g/ha: 125 g ai/ha, visual injury on 0 to 100 scale (0 no effect, 100 complete control), approx. 10 d; for pest or weed control at 500 g/ha: 500 g ai/ha, 0 to 100 scale, 0 is no effect, 100 is complete control
Method in brief: as §1

[11] = system: wheat (Triticum aestivum); assay: Test A postemergence; settings: Triticum aestivum, post-emergence, 240 h, postemergence; for plant injury at 125 g/ha: 125 g ai/ha; for plant injury at 500 g/ha: 500 g ai/ha, 0 to 100 scale, 0 is no effect, 100 is complete control
Method in brief: as §1

[12] = system: barnyardgrass (Echinochloa crus-galli); assay: Test A postemergence; settings: Echinochloa crus-galli, post-emergence, 240 h, postemergence, read-out: Barnyardgrass plant response rating; for pest or weed control at 125 g/ha: 125 g ai/ha, visual injury on 0 to 100 scale (0 no effect, 100 complete control), approx. 10 d; for pest or weed control at 500 g/ha: 500 g ai/ha, 0 to 100 scale, 0 is no effect, 100 is complete control
Method in brief: as §1

[13] = system: ragweed (common ragweed, Ambrosia elatior); assay: Test A postemergence; settings: Ambrosia artemisiifolia, post-emergence, 240 h, postemergence; for pest or weed control at 125 g/ha: 125 g ai/ha; for pest or weed control at 500 g/ha: 500 g ai/ha, 0 to 100 scale, 0 is no effect, 100 is complete control
Method in brief: as §1

[14] = system: ryegrass, Italian (Italian ryegrass, Lolium multiflorum); assay: Test A postemergence; settings: Lolium multiflorum, post-emergence, 240 h, postemergence; for pest or weed control at 125 g/ha: 125 g ai/ha; for pest or weed control at 500 g/ha: 500 g ai/ha, 0 to 100 scale, 0 is no effect, 100 is complete control
Method in brief: as §1

[15] = system: pigweed (Amaranthus retroflexus); assay: Test A postemergence; settings: Amaranthus retroflexus, post-emergence, 240 h, postemergence; for pest or weed control at 125 g/ha: 125 g ai/ha; for pest or weed control at 500 g/ha: 500 g ai/ha, 0 to 100 scale, 0 is no effect, 100 is complete control
Method in brief: as §1

[16] = read-out: Wheat plant response rating
[17] = read-out: Ragweed plant response rating
[18] = read-out: Ryegrass, Italian plant response rating
[19] = read-out: Pigweed plant response rating

Row | Structure (SMILES) | pest or weed control at 125 g/ha [1] [%] | pest or weed control at 500 g/ha [1] [%] | pest or weed control at 250 g/ha [2] [%] | pest or weed control at 250 g/ha [3] [%] | pest or weed control at 250 g/ha [4] [%] | pest or weed control at 250 g/ha [5] [%] | pest or weed control at 125 g/ha [6] [%] | pest or weed control at 500 g/ha [6] [%] | pest or weed control at 125 g/ha [7] [%] | pest or weed control at 500 g/ha [7] [%] | pest or weed control at 125 g/ha [8] [%] | pest or weed control at 500 g/ha [8] [%] | plant injury at 125 g/ha [9] [%] | plant injury at 500 g/ha [9] [%] | pest or weed control at 125 g/ha [10] [%] | pest or weed control at 500 g/ha [10] [%] | plant injury at 500 g/ha [11, 16] [%] | pest or weed control at 125 g/ha [12] [%] | pest or weed control at 500 g/ha [12] [%] | pest or weed control at 500 g/ha [13, 17] [%] | further results
1 | CC(C)Oc1ccc([C@H]2CNC(=O)[C@@H]2C(=O)Nc2cccc(F)c2F)cc1 [Compound 1136] | 30 | 90 | 85 | 0 | 0 | 0 | 20 | 90 | 0 | 30 | 0 | 20 | 0 | 0 | 0 | 0 | 0 | 30 | 90 | 0 | plant injury at 125 g/ha ([11]; visual injury on 0 to 100 scale (0 no effect, 100 complete control), approx. 10 d, read-out: Wheat plant response rating): 0%; pest or weed control at 125 g/ha ([13]; visual injury on 0 to 100 scale (0 no effect, 100 complete control), approx. 10 d, read-out: Ragweed plant response rating): 0%; pest or weed control at 125 g/ha ([14]; visual injury on 0 to 100 scale (0 no effect, 100 complete control), approx. 10 d, read-out: Ryegrass, Italian plant response rating): 0%; pest or weed control at 500 g/ha [14, 18]: 0%; pest or weed control at 125 g/ha ([15]; visual injury on 0 to 100 scale (0 no effect, 100 complete control), approx. 10 d, read-out: Pigweed plant response rating): 0%; pest or weed control at 500 g/ha [15, 19]: 0%
2 | O=C1NC[C@H](c2ccc(F)c(OC(F)(F)C(F)F)c2)[C@H]1C(=O)Nc1ccc(F)cc1F (racemic) [Compound 1154] | 90 | 90 | 100 | 30 | 30 | 0 | 90 | 60 | 70 | 90 | 60 | 70 | 90 | 90 | 60 | 60 | 80 | 70 | 90 | 40 | plant injury at 125 g/ha ([11]; visual injury vs untreated controls after approx. 10 d, 0 = no effect, 100 = complete control, read-out: Wheat plant response rating (0 to 100 scale)): 40%; pest or weed control at 125 g/ha ([13]; visual injury vs untreated controls after approx. 10 d, 0 = no effect, 100 = complete control, read-out: Ragweed plant response rating (0 to 100 scale)): 0%; pest or weed control at 125 g/ha ([14]; visual injury vs untreated controls after approx. 10 d, 0 = no effect, 100 = complete control, read-out: Ryegrass, Italian plant response rating (0 to 100 scale)): 30%; pest or weed control at 500 g/ha [14, 18]: 50%; pest or weed control at 125 g/ha ([15]; visual injury vs untreated controls after approx. 10 d, 0 = no effect, 100 = complete control, read-out: Pigweed plant response rating (0 to 100 scale)): 60%; pest or weed control at 500 g/ha [15, 19]: 70%
